Source: US20260133203A1, “DETECTION OF FUMARATE-DERIVED MODIFICATION IN A TEST SAMPLE” (UNIVERSITY OF SOUTH CAROLINA, priority 2017, published 2026)
Structures can show the parent of a compound that is named as a salt.

Tested on: primary rat neurons
Test: LC-MS/MS identification of succinated proteins in primary rat neurons
Type: cell-based
Details: DMF-treated primary rat neurons, modified by DMF or MMF
Protocol: Primary neurons from newborn rat brain cortices were isolated and cultured using an adaptation of methods described previously. Briefly, postnatal day 1 rats were sacrificed by decapitation, the brains were aseptically dissected, and cortices were separated from the rest of the brain in ice-cold Hibernate®-A medium (Life Technologies) containing 2% (v/v) B-27 supplement (Life Technologies) and 0.5 mM glutamine (InvitrogenTM). The tissue was minced in fragments of about 1 mm3 with a scalpel and subjected to digestion with 2 mg/ml papain (Worthington) in the supplemented Hibernate®-A medium for 20 minutes at 30° C. in a shaker incubator set at 100 rpm. […] After a centrifugation at 500 g for 5 min at room temperature, cells were resuspended in NeurobasalTM-A medium containing 0.5 mM glutamine, 2% B-27 supplement, and 5 ng/ml bFGF (InvitrogenTM); counted and plated on 24-well plates pretreated with 0.01% poly-L-lysine (Sigma-AldrichTM) at a density of 200,000 cells/well. […] The protein content in the different samples was determined by the Lowry assay. […] After gel extraction, the peptides were re-suspended in 1% acetic acid and analyzed on a DionexTM […] system (Thermo ScientificTM, Rockford, IL) coupled to an Orbitrap Velos ProTM mass spectrometer (Thermo ScientificTM, Rockford, IL). […]

Compound: COC(=O)/C=C/C(=O)OC [DMF, dimethyl fumarate]
- number of succinated proteins confirmed: 4
